Laboratory results from article PMC6934184, “Selective DNA-PKcs inhibition extends the therapeutic index of localized radiotherapy and chemotherapy” (The Journal of Clinical Investigation, 2019).

Target: T1, BTK (Homo sapiens, UniProt Q06187)
T1 construct: purchased Thermo Fisher Scientific (Life Technologies) SelectScreen
Assay: SelectScreen Z'LYTE
Assay type: biochemical
Procedure, shortened: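 SelectScreen broad panel; activity (Z'LYTE, Adapta) plus binding formats. ATP: Km app for CSF1R Z'LYTE; 10 for CAMK1 Adapta. Readout = % per kinase.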

T1 sequence (Q06187 whole entry): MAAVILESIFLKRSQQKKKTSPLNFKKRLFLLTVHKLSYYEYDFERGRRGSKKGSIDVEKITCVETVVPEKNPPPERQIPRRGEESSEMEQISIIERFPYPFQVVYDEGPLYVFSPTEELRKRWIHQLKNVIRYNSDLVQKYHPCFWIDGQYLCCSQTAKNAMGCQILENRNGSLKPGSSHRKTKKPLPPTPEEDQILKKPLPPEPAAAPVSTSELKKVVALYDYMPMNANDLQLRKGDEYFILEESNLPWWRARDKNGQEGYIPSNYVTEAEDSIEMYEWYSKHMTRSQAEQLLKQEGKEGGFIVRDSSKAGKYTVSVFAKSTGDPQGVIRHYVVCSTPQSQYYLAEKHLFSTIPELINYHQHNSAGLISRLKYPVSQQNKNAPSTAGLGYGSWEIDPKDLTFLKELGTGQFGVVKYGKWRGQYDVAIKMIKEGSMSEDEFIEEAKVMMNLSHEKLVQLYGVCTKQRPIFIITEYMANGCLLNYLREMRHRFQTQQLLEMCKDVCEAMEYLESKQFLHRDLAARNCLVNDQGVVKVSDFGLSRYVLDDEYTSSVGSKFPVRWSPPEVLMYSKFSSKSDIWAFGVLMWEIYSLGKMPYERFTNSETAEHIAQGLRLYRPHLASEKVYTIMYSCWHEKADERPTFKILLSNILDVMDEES

CN(C(=O)CN1CCOCC1)c1ccc2sc3c(-c4cccc5c(=O)cc(N6CC7CCC(C6)O7)oc45)cccc3c2c1 [NU5455]
inhibition at 1 µM: -2%
